Read-outs that look alike come from different tables or passages of the source.
Experiments:
[1] = Noncompartmental pharmacokinetics after single oral doses in healthy volunteers; format: in vivo, human; conditions: for half-life / Cmax / AUC / Tmax / CL renal: male, human; for AUC: read-out: AUC(0‐inf); for Tmax: read-out: Median tmax (range); for CL renal / Recovery unchanged: urine; for CL renal: read-out: Renal clearance (converted)
Excerpt: Eligible subjects for the clinical study were healthy adult male volunteers aged 18‐45 years, with a body weight ranging between 55 and 95 kg and a body mass index of 18‐29 kg/m^2. Subjects with a history or evidence of clinically significant diseases or interfering conditions were excluded. Other exclusion criteria included: history of any clinically significant laboratory value including serology for hepatitis and HIV, relevant alcohol or drug abuse, recent acute illness, or use of any medication the week prior to study.
Single oral doses of 50, 100, and 200 mg of sultiame (Ospolot®, immediate‐release coated tablets) were administered in fasting conditions, in open‐label, during periods 1, 2, and 3, respectively, at 4‐6 weeks interval. On each period, serial plasma and whole blood samples were collected predose, then at 15, 30 min, 1, 2, 3, 4, 5, 6, 8, 10, 24, 48, 72 168, 336, and 504 hours postdose. Plasma and whole blood samples were stored at − 80°C until analysis. Hematocrit was measured using a microhematocrit centrifuge machine (Haematokrit 200®, Hettich AG, Bäch, Switzerland) on each occasion to calculate intraerythrocytic concentrations. Urine PK samples were collected in 6 fractions, before dosing, from 0‐2, 2‐4, 4‐8, 8‐10, and 10‐24 hours postdose. Urine pH was measured on each fraction.
The quantification of sultiame in whole blood, plasma, and urine was performed using a high‐performance liquid chromatography coupled to tandem triple quadrupole mass spectrometry (LC‐MS/MS) method developed and validated purposely for the trial. Briefly, 300 µL of methanol (MeOH) containing the internal standard (IS) sultiame‐D4 (Toronto Research Chemicals, Canada) was added to 100 µL of human plasma, hemolyzed whole blood, or hemolyzed red blood cells, for protein precipitation. Urine samples were processed similarly. After vortex, sonication for 30 seconds, and centrifugation steps, 250 µL of supernatant was transferred into a glass vial with insert, followed by dilution with 250 µL of pure water and a final vortex step, prior to LC‐MS/MS analysis. Chromatographic analyses were carried out on a XSelect HSS T3 column (Waters, Milford, MA, USA) using a water‐acetonitrile gradient over 5 minutes. Detection was performed with a triple quadrupole mass spectrometer (TSQ Quantum Ultra, ThermoFisher Scientific, Waltham, MA, USA) using the m/z transitions 289.0 → 225.1 for sultiame, and 293.0 → 229.1 for sultiame‐D4. Lower limits of detection and quantification of the method were 0.001 and 0.01 µg/mL, respectively, with a dynamic range extending up to 50 µg/mL. […] Deviations from nominal concentration (inaccuracy) of internal QCs were comprised within − 1.9 to + 11.7% over the calibration range. […] Metabolites, whose chemical structure is still elusive, were not determined.
Erythrocytic concentrations (Cery) were deduced from whole blood and plasma measurements as: Cery=Cwhole blood-Cplasma·1-Ht/Ht
Plasma, whole blood, and urine sultiame PK parameters were first computed for each volunteer using standard noncompartmental calculations with Stata® (version 13, StataCorp. 2013, Stata Statistical Software, College Station TX, USA).
The area under the curve for a single dose (AUC0‐inf) was calculated using the log trapezoidal rule with extrapolation to infinity. The terminal rate constant ( λz ) was derived from a two‐exponential model curve. CL/F was calculated as the dose divided by AUC0‐inf, the half‐life (t1/2) as ln(2)/ λz , and V/F as (CL/F)/ λz .

[2] = Safety and tolerability assessments in healthy volunteers; format: in vivo, human
Procedure: All adverse events were recorded with an evaluation of their severity and imputability to the study drug. Each volunteer received a full medical examination at screening and at the end of the study. Visual analogue scales (VAS) on paper support recorded the intensity of 12 potential symptoms (abdominal pain, appetite, nausea, taste of sparkling water, fatigue, headache, dyspnea, dizziness, paresthesia, difficulty in concentration, irritability, and depression) predrug (0 hour) at 0.5, 1, 2, 4, 6, 8, 10, and 24 hours postdose. Vital signs (supine blood pressure, heart rate, body temperature, and respiratory frequency) were measured predose and at 1, 2, 4, 6, 8, 10, and 24 hours postdose. Laboratory parameters, drug screen, and urinalysis were performed at screening and at study end.

[3] = design: method as in earlier work; conditions: manufacturer's information ref 8; cited from earlier work
[4] = plasma, single oral dose 50 mg, n = 4, geometric mean (CV%)
[5] = plasma, single oral dose 100 mg, n = 4, geometric mean (CV%)
[6] = plasma, single oral dose 200 mg, n = 4, geometric mean (CV%)
[7] = single oral dose 50 mg, n = 4, geometric mean (CV%)
[8] = single oral dose 100 mg, n = 4, geometric mean (CV%)
[9] = single oral dose 200 mg, n = 4, geometric mean (CV%)
[10] = whole blood, single oral dose 50 mg, n = 4, geometric mean (CV%)
[11] = whole blood, single oral dose 100 mg, n = 4, geometric mean (CV%)
[12] = whole blood, single oral dose 200 mg, n = 4, geometric mean (CV%)
[13] = single oral doses 50, 100, 200 mg

NS(=O)(=O)c1ccc(N2CCCCS2(=O)=O)cc1 [Sultiame]
increase in plasma Cmax for each doubling of dose ([1]; between dose levels 50, 100, 200 mg): 10 fold
increase in urinary recovery of unchanged sultiame ([1]; between the 50 and 200 mg doses): about 10 fold
half-life ([1]; whole blood, oral, noncompartmental, highest observed, read-out: whole blood t1/2): ≤ 312 h
Cmax [1, 4]: 20 ng/mL
AUC [1, 4]: 1.24 µg·h/mL
half-life ([1]; plasma, single oral dose 50 mg, n = 4, geometric mean (CV%), read-out: t1/2 (converted)): 50.8 h
Tmax ([1]; plasma, single oral dose 50 mg, n = 4): 7 h
Cmax [1, 5]: 180 ng/mL
AUC [1, 5]: 8.57 µg·h/mL
half-life ([1]; plasma, single oral dose 100 mg, n = 4, geometric mean (CV%), read-out: t1/2 (converted)): 90.9 h
Tmax ([1]; plasma, single oral dose 100 mg, n = 4): 2 h
Cmax [1, 6]: 1880 ng/mL
AUC [1, 6]: 24 µg·h/mL
half-life ([1]; plasma, single oral dose 200 mg, n = 4, geometric mean (CV%), read-out: t1/2 (converted)): 40 h
Tmax ([1]; plasma, single oral dose 200 mg, n = 4): 1.5 h
CL renal [1, 7]: 2.83 mL/min
CL renal [1, 8]: 2.33 mL/min
CL renal [1, 9]: 2.17 mL/min
Cmax [1, 10]: 7910 ng/mL
AUC [1, 10]: 3320 µg·h/mL
half-life ([1]; whole blood, single oral dose 50 mg, n = 4, geometric mean (CV%), read-out: t1/2 (converted)): 313 h
Tmax ([1]; whole blood, single oral dose 50 mg, n = 4): 3 h
Cmax [1, 11]: 15900 ng/mL
AUC [1, 11]: 4540 µg·h/mL
half-life ([1]; whole blood, single oral dose 100 mg, n = 4, geometric mean (CV%), read-out: t1/2 (converted)): 233 h
Tmax ([1]; whole blood, single oral dose 100 mg, n = 4): 5.01 h
Cmax [1, 12]: 17200 ng/mL
AUC [1, 12]: 4530 µg·h/mL
half-life ([1]; whole blood, single oral dose 200 mg, n = 4, geometric mean (CV%), read-out: t1/2 (converted)): 253 h
Tmax ([1]; whole blood, single oral dose 200 mg, n = 4): 2.5 h
CL/F [1, 4]: 40.4 (93) L/h
V/F [1, 4]: 2964 (21) L
CL/F [1, 5]: 11.7 (25) L/h
V/F [1, 5]: 1529 (21) L
CL/F [1, 6]: 8.3 (26) L/h
V/F [1, 6]: 480 (26) L
Recovery unchanged [1, 7]: 1.61 (17) %
Recovery unchanged [1, 8]: 5.24 (111) %
Recovery unchanged [1, 9]: 16.73 (36) %
CL/F [1, 10]: 0.015 (37) L/h
V/F [1, 10]: 6.8 (21) L
CL/F [1, 11]: 0.008 (34) L/h
V/F [1, 11]: 7.4 (21) L
CL/F [1, 12]: 0.044 (41) L/h
V/F [1, 12]: 16.2 (27) L
transient facial and limb paresthesia ([2]; after intake of the highest dose of 200 mg, four subjects): reported by three subjects
gastrointestinal and central nervous system tolerance using VAS [2, 13]: limited impact
symptom most frequently reported [2, 13]: Fatigue
severe or serious adverse events ([2]; single oral doses 50, 100, 200 mg, four subjects): No severe or serious adverse events were reported
Plasma‐free fraction [3]: 71%

Reference: PMC6986439, “Sultiame pharmacokinetic profile in plasma and erythrocytes after single oral doses: A pilot study in healthy volunteers” (Pharmacology Research & Perspectives, 2020)
